Source: PubChem BioAssay (NCI)
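These data come from cells grown in 96-well plates and exposed to compound for 48 hours at five concentrations. At the GI50, growth is halved. TGI: concentration producing complete growth inhibition.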

Key:
Assay in all cases: NCI anticancer screen, dose series, 48 h
[1] = tested on: SK-MEL-5 melanoma
[2] = tested on: SR leukemia
[3] = tested on: SK-OV-3 ovarian
[4] = tested on: A498 renal
[5] = tested on: DU-145 prostate
[6] = tested on: UACC-257 melanoma
[7] = tested on: RXF 393 renal
[8] = tested on: HOP-62 NSCLC
[9] = tested on: HOP-92 NSCLC
[10] = tested on: SF-268 CNS
[11] = tested on: SNB-75 CNS
[12] = tested on: HS 578T breast
[13] = tested on: HCC-2998 colon
[14] = tested on: SNB-19 CNS
[15] = tested on: SF-295 CNS
[16] = tested on: TK-10 renal
[17] = tested on: 786-0 renal
[18] = tested on: M14 melanoma
[19] = tested on: HCT-116 colon
[20] = tested on: UACC-62 melanoma
[21] = tested on: MOLT-4 leukemia
[22] = tested on: EKVX NSCLC
[23] = tested on: KM12 colon
[24] = tested on: SK-MEL-28 melanoma
[25] = tested on: NCI/ADR-RES ovarian
[26] = tested on: OVCAR-5 ovarian
[27] = tested on: HCT-15 colon
[28] = tested on: ACHN renal
[29] = tested on: NCI-H23 lung
[30] = tested on: A549 NSCLC
[31] = tested on: CCRF-CEM leukemia
[32] = tested on: SN12C renal
[33] = tested on: COLO 205 colon
[34] = tested on: LOX IMVI melanoma
[35] = tested on: U251 CNS
[36] = tested on: PC-3 prostate
[37] = tested on: HL-60(TB) leukemia
[38] = tested on: UO-31 renal
[39] = tested on: NCI-H522 lung
[40] = tested on: OVCAR-3 ovarian
[41] = tested on: SK-MEL-2 melanoma
[42] = tested on: CAKI-1 renal
[43] = tested on: HT29 colon
[44] = tested on: SW-620 colon
[45] = tested on: SF-539 CNS
[46] = tested on: MDA-MB-231 breast
[47] = tested on: K-562 leukemia
[48] = tested on: MCF7 breast
[49] = tested on: OVCAR-8 ovarian
[50] = tested on: IGROV1 ovarian
[51] = tested on: OVCAR-4 ovarian
[52] = tested on: MALME-3M melanoma
[53] = tested on: MDA-MB-435
[54] = tested on: NCI-H226 lung
[55] = tested on: T-47D breast
[56] = tested on: NCI-H460 lung
[57] = tested on: RPMI-8226 leukemia
[58] = tested on: BT-549 breast

N=C(N)c1ccc(-c2ccc(-c3ccc(Cl)cc3)s2)s1
GI50 [1]: 3.16 µM
TGI [1]: 8.66 µM
GI50 [2]: 0.322 µM
TGI [2]: > 100 µM
GI50 [3]: 1.7 µM
TGI [3]: 3.15 µM
GI50 [4]: 13 µM
TGI [4]: 45.3 µM
GI50 [5]: 1.62 µM
TGI [5]: 2.98 µM
GI50 [6]: 2.78 µM
TGI [6]: 4.9 µM

Cc1cc2c(C#N)n3c(c2cc1C)C(=O)C(c1ccccc1)Oc1ccccc1-3 (stereo not given)
GI50 [7]: 2.71 µM
TGI [7]: 39.6 µM
GI50 [8]: 3.71 µM
TGI [8]: > 100 µM
GI50 [3]: 5.55 µM
TGI [3]: > 100 µM
GI50 [9]: 1.62 µM
TGI [9]: 5.77 µM
GI50 [10]: 3.73 µM
TGI [10]: > 100 µM
GI50 [11]: 2.25 µM
TGI [11]: 9.58 µM
GI50 [12]: 4.29 µM
TGI [12]: > 100 µM
GI50 [13]: > 100 µM
TGI [13]: > 100 µM
GI50 [14]: 2.97 µM
TGI [14]: > 100 µM
GI50 [15]: 3.83 µM
TGI [15]: > 100 µM
GI50 [16]: 3.33 µM
TGI [16]: > 100 µM
GI50 [17]: 3.91 µM
TGI [17]: > 100 µM

CCN(CC)CCCC(C)NC(=S)N/N=C(\C)c1ccccn1 (stereo not given)
GI50 [1]: 1.7 µM
TGI [1]: 4.2 µM
GI50 [2]: 2.45 µM
TGI [2]: > 100 µM
GI50 [18]: 2.8 µM
TGI [18]: 17.8 µM
GI50 [19]: 2.3 µM
TGI [19]: > 100 µM
GI50 [20]: 3.02 µM
TGI [20]: > 100 µM
GI50 [21]: 4.49 µM
TGI [21]: > 100 µM
GI50 [22]: 6.71 µM
TGI [22]: > 100 µM
GI50 [23]: 4.02 µM
TGI [23]: > 100 µM
GI50 [7]: 2.14 µM
TGI [7]: 6.81 µM
GI50 [24]: 16.9 µM
TGI [24]: > 100 µM
GI50 [25]: 15.6 µM
TGI [25]: > 100 µM
GI50 [8]: 5.86 µM
TGI [8]: 83.1 µM
GI50 [26]: 4.89 µM
TGI [26]: > 100 µM
GI50 [27]: 2.49 µM
TGI [27]: > 100 µM
GI50 [28]: 2.99 µM
TGI [28]: > 100 µM
GI50 [29]: 5.22 µM
TGI [29]: > 100 µM
GI50 [30]: 3.75 µM
TGI [30]: > 100 µM
GI50 [9]: 3.98 µM
TGI [9]: > 100 µM
GI50 [31]: 4.64 µM
TGI [31]: > 100 µM
GI50 [10]: 3.19 µM
TGI [10]: > 100 µM
GI50 [11]: 7.55 µM
TGI [11]: > 100 µM
GI50 [32]: 4.14 µM
TGI [32]: > 100 µM
GI50 [33]: 3.25 µM
TGI [33]: > 100 µM
GI50 [34]: 2.63 µM
TGI [34]: > 100 µM
GI50 [35]: 2.78 µM
TGI [35]: > 100 µM
GI50 [36]: 5.02 µM
TGI [36]: > 100 µM
GI50 [37]: 1.39 µM
TGI [37]: 6.02 µM
GI50 [12]: 43.9 µM
TGI [12]: > 100 µM
GI50 [38]: 2.51 µM
TGI [38]: > 100 µM
GI50 [4]: 2.57 µM
TGI [4]: 97 µM
GI50 [39]: 3.17 µM
TGI [39]: 9.41 µM
GI50 [40]: 3.87 µM
TGI [40]: > 100 µM
GI50 [41]: 5.54 µM
TGI [41]: > 100 µM
GI50 [42]: 4.56 µM
TGI [42]: > 100 µM
GI50 [43]: 5.59 µM
TGI [43]: > 100 µM
GI50 [44]: 4.03 µM
TGI [44]: > 100 µM
GI50 [13]: 3.52 µM
TGI [13]: > 100 µM
GI50 [14]: 7.83 µM
TGI [14]: > 100 µM
GI50 [45]: 3.33 µM
TGI [45]: 82 µM
GI50 [15]: 4.38 µM
TGI [15]: > 100 µM
GI50 [46]: 0.475 µM
TGI [46]: > 100 µM
GI50 [16]: 21.6 µM
TGI [16]: > 100 µM
GI50 [17]: 2.83 µM
TGI [17]: 12 µM
GI50 [5]: 3.79 µM
TGI [5]: > 100 µM
GI50 [47]: 3.08 µM
TGI [47]: > 100 µM
GI50 [48]: 2.94 µM
TGI [48]: > 100 µM
GI50 [49]: 2.87 µM
TGI [49]: > 100 µM
GI50 [50]: 5.64 µM
TGI [50]: > 100 µM
GI50 [51]: 3 µM
TGI [51]: > 100 µM
GI50 [52]: 3.96 µM
TGI [52]: > 100 µM
GI50 [53]: 5.17 µM
TGI [53]: > 100 µM
GI50 [6]: 3.16 µM
TGI [6]: 31.2 µM
GI50 [54]: 2.28 µM
TGI [54]: 21.2 µM
GI50 [55]: 5.36 µM
TGI [55]: > 100 µM
GI50 [56]: 2.33 µM
TGI [56]: 15 µM
GI50 [57]: 5.84 µM
TGI [57]: > 100 µM

CC(C)OC(=S)[S-].[Au+].c1ccc([PH+](c2ccccc2)c2ccccc2)cc1
GI50 [18]: 0.986 µM
TGI [18]: 2.32 µM
GI50 [7]: 0.387 µM
TGI [7]: 1.48 µM
GI50 [9]: 1.07 µM
TGI [9]: 2.25 µM
GI50 [34]: 0.478 µM
TGI [34]: 2.07 µM
GI50 [35]: 0.419 µM
TGI [35]: 1.56 µM
GI50 [37]: 0.264 µM
TGI [37]: 1.36 µM
GI50 [39]: 0.176 µM
TGI [39]: 0.409 µM
GI50 [40]: 0.316 µM
TGI [40]: 1.05 µM
GI50 [45]: 1.24 µM
TGI [45]: 2.49 µM
GI50 [48]: 0.467 µM
TGI [48]: 2.66 µM
GI50 [57]: 0.747 µM
TGI [57]: 4.01 µM

Cc1ccc(-c2c(C#N)c(O)n(NS(=O)(=O)c3ccccc3)c(=O)c2C#N)cc1
TGI [1]: > 100 µM
TGI [58]: > 100 µM
TGI [18]: > 100 µM
TGI [19]: > 100 µM
TGI [20]: > 100 µM
TGI [21]: > 100 µM
TGI [22]: > 100 µM
TGI [23]: > 100 µM
TGI [7]: > 100 µM
TGI [24]: > 100 µM
TGI [25]: > 100 µM
TGI [8]: > 100 µM
TGI [3]: > 100 µM
TGI [26]: > 100 µM
TGI [27]: > 100 µM
TGI [28]: > 100 µM
TGI [30]: > 100 µM
TGI [9]: > 100 µM
TGI [31]: > 100 µM
TGI [10]: > 100 µM
TGI [11]: > 100 µM
TGI [32]: > 100 µM
TGI [33]: > 100 µM
TGI [34]: > 100 µM
TGI [35]: > 100 µM
TGI [36]: > 100 µM
TGI [37]: > 100 µM
TGI [4]: > 100 µM
TGI [39]: > 100 µM
TGI [41]: > 100 µM
TGI [42]: > 100 µM
TGI [43]: > 100 µM
TGI [44]: > 100 µM
TGI [13]: > 100 µM
TGI [14]: > 100 µM
TGI [45]: > 100 µM
TGI [15]: > 100 µM
TGI [46]: > 100 µM
TGI [16]: > 100 µM
TGI [17]: > 100 µM
TGI [47]: > 100 µM
TGI [48]: > 100 µM
TGI [49]: > 100 µM
TGI [50]: > 100 µM
TGI [51]: > 100 µM
TGI [52]: > 100 µM
TGI [53]: > 100 µM
TGI [6]: > 100 µM
TGI [54]: > 100 µM
TGI [56]: > 100 µM
